Measurements as given in patent publication US20250250303A1 (THE TRUSTEES OF COLUMBIA UNIVERSITY IN THE CITY OF NEW YORK, priority 2022, published 2025).
Bridge positions count the residues as written; N and C are the ends. Peptide text beside a SMILES is read from it.

Legend:
[1] = tested on: 3T3-L1 and IR-transfected L6 myoblasts; details: cited from earlier work
CAL33 = assay: Cancer cell proliferation, CAL33; type: cell-based
IR F497A = target: T1, IR F497A (Homo sapiens, UniProt P06213, F524A); assay: IR activation assay in 293 FT cells, IR F497A mutant; type: cell-based; details: 10 min
T1 construct: expressed in transfected cells; host or cells: 293 FT cells

T47D = assay: Cancer cell proliferation, T47D; type: cell-based
[2] = Zucker diabetic fatty rats; cited from earlier work
IR D707A [3] = target: T2, IR D707A (Homo sapiens, UniProt P06213, D734A); assay: IR signaling in IR-D707A MEFs (tamoxifen-inducible IR knockout); type: cell-based, mouse; design: expressed in transfected cells; host or cells: mouse embryonic fibroblasts from IR F/F; CRE-ERT mice, retroviral pBabe-puro, tamoxifen-treated; details: wide range of concentrations
Experimental: Fresh 0.25% trypsin-EDTA was added. […] The medium was changed the next day to remove debris and floating cells.

IR wild-type (WT) = target: T3, IR wild-type (WT) (Homo sapiens, UniProt P06213); assay: IR activation (auto-phosphorylation) assay in 293 FT cells expressing IR WT; type: cell-based
T3 construct: expressed in transfected cells; host or cells: 293 FT cells
Experimental: The insulin receptor signaling assay was performed as described earlier with some modifications. For the activation assay, the short isoform of human IR in pCS2-MYC was used as described previously. Plasmid transfections into 293 FT cells were performed with Lipofectamin™ 2000 (Invitrogen).
The cells were incubated with the lysis buffer B [50 mM Hepes pH 7.4, 150 mM NaCl, 10% Glycerol, 1% Triton X-100, 1 mM EDTA, 100 mM sodium fluoride, 2 mM sodium orthovanadate, 20 mM sodium pyrophosphate, 0.5 mM dithiothreitol (DTT), 2 mM phenylmethylsulfonyl fluoride (PMSF)] supplemented with complete Protease Inhibitor Cocktail (Roche), PhosSTOP (Sigma), and 25 U/ml turbo nuclease (Accelagen) on ice for 1 hr. After centrifuge at 20,817 g at 4° C. for 10 min, the concentrations of cell lysate were measured using Micro BCA Protein Assay Kit (Thermo Scientific). About 50-60 μg total proteins were analyzed by SDS-PAGE and quantitative Western blotting. The following antibodies were purchased from commercial sources: Anti-IR-pY1150/1151 (WB, 1:1000; 19H6; labeled as pY IR, Cat. #3024), anti-AKT (WB, 1:1000; 40D4, Cat. #2920), anti-pS473 AKT (WB, 1:1000; D9E, Cat. #4060), anti-ERK1/2 (WB, 1:1000; L34F12, Cat. #4696), anti-pERK1/2 (WB, […]; 197G2, Cat. #4377), anti-IRS1-pS616 (WB, 1:1000; C15H5, Cell Signaling, Cat. #3203); anti-IRS1 (WB, 1:1000; A301-158A, Bethyl Laboratory); anti-IR (WB, 1:500, CT-3, Santa Cruz; labeled as IR for primary hepatocytes and MEFs, Cat. #sc-57342); anti-IR (WB, 1:1000; EPR23566-103; labeled as IR for FIG. 31, ab278100, Abcam); anti-Myc (WB, 1:2000; 9E10, Cat. #11667149001, Roche; labeled as IR for 293 FT cells). For quantitative western blots, anti-rabbit immunoglobulin G (IgG) (H+L) (WB, 1:5000; Dylight 800 conjugates, Cat. #5151) and anti-mouse IgG (H+L) (WB, 1:5000; Dylight 680 conjugates, Cat. #5470) (Cell Signaling) were used as secondary antibodies. The membranes were scanned with the Odyssey Infrared Imaging System (Li—COR, Lincoln, NE).

IR D707A [4] = target: T2, IR D707A; assay: IR activation assay in 293 FT cells, IR D707A mutant; type: cell-based; design: expressed in transfected cells; host or cells: 293 FT cells; details: 10 min
IR = IR (Homo sapiens, UniProt P06213); details: cited from earlier work
IR N15K = target: T4, IR N15K (Homo sapiens, UniProt P06213, N42K); assay: IR activation assay in 293 FT cells, IR N15K mutant; type: cell-based; details: 10 min
T4 construct: expressed in transfected cells; host or cells: 293 FT cells

C2C12 cells = assay: MTT assay in C2C12 cells; type: cell-based
Experimental: To examine the function of […] on cell viability and growth, an MTT assay was performed in C2C12 cells.

IR F701A/F705A = target: T5, IR F701A/F705A (Homo sapiens, UniProt P06213, F728A/F732A); assay: IR activation assay in 293 FT cells, IR F701A/F705A mutant; type: cell-based; details: 10 min
T5 construct: expressed in transfected cells; host or cells: 293 FT cells

IR F96A = target: T6, IR F96A (Homo sapiens, UniProt P06213, F123A); assay: IR activation assay in 293 FT cells, IR F96A mutant; type: cell-based; details: 10 nM for 10 min
T6 construct: expressed in transfected cells; host or cells: 293 FT cells

SREBP1 = assay: Immunofluorescence assay for SREBP1 translocation in primary hepatocytes; type: cell-based, mouse; details: 100 nM for 30 min
Experimental: Primary hepatocytes were as described in the primary hepatocyte isolation section. […] Cells were fixed with 4% paraformaldehyde for 10 min. The fixed cells were incubated with PBS for 30 min and 3% BSA in PBS with 0.1% Triton X-100 (0.1% PBST) for 1 hr., and then treated with anti-SREBP1 antibodies (20B12, Millipore, Cat. #MABS1987, 1:200) in 3% BSA in 0.1% PBST at 4° C. overnight. After being washed, cells were incubated with secondary antibodies (Alexa Fluor 488 goat anti-rabbit, Invitrogen, Cat. #A11008, 1:200) for 1 hr. Cells were washed and mounted on microscope slides in ProLong Gold Antifade reagent with DAPI (Invitrogen). Images were acquired as a series of 0.2 μm stacks with a Leica Thunder Imager (Leica Microsystems Inc.). Raw images were deconvolved using LAS X Software (Leica Microsystems Inc.). The nuclear edges and the nuclear SREBP1 signal were defined with Image J. Identical exposure times and magnifications were used for all comparative analyses.

IR F64A = target: T7, IR F64A (Homo sapiens, UniProt P06213, F91A); assay: IR activation assay in 293 FT cells, IR F64A mutant; type: cell-based; details: 10 nM for 10 min
T7 construct: expressed in transfected cells; host or cells: 293 FT cells

MCF7 = assay: Cancer cell proliferation, MCF7; type: cell-based

T2 sequence (P06213 28-1370 isoform P06213-2 D734A limits assumed): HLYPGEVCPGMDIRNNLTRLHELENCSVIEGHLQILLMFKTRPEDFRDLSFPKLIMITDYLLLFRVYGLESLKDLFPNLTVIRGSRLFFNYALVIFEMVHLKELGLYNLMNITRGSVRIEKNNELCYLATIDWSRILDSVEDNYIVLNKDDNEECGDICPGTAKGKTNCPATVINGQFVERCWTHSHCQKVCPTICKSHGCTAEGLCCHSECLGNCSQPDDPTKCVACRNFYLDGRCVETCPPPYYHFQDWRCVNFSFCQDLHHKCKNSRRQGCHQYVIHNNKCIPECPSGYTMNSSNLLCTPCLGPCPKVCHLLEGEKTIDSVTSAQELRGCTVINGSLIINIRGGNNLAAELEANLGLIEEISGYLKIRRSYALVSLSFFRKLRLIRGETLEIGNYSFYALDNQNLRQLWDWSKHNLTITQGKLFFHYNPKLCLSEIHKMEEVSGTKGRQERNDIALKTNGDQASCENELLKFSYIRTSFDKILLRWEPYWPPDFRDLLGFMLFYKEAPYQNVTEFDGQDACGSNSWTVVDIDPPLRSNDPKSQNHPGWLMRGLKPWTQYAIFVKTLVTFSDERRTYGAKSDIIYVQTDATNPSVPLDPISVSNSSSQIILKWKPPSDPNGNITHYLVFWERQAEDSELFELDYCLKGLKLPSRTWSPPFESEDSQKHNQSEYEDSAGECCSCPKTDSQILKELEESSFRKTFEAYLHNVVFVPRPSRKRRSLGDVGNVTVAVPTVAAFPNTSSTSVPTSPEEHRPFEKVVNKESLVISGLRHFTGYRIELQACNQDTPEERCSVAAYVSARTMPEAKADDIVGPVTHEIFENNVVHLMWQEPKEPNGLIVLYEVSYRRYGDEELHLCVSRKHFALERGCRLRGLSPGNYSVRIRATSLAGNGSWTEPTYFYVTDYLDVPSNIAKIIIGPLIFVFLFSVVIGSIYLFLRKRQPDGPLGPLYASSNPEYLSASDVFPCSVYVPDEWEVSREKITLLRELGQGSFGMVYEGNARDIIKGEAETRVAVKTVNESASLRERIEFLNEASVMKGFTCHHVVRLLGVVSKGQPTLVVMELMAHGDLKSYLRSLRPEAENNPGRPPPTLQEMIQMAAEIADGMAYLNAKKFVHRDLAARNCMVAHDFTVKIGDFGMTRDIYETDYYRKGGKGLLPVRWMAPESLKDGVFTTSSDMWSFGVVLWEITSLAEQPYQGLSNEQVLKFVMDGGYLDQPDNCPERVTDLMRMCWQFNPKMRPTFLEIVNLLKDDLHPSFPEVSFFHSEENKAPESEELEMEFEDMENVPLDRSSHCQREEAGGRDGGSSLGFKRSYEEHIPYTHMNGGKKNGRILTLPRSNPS
T2 sequence (P06213 763-1382 partner limits assumed): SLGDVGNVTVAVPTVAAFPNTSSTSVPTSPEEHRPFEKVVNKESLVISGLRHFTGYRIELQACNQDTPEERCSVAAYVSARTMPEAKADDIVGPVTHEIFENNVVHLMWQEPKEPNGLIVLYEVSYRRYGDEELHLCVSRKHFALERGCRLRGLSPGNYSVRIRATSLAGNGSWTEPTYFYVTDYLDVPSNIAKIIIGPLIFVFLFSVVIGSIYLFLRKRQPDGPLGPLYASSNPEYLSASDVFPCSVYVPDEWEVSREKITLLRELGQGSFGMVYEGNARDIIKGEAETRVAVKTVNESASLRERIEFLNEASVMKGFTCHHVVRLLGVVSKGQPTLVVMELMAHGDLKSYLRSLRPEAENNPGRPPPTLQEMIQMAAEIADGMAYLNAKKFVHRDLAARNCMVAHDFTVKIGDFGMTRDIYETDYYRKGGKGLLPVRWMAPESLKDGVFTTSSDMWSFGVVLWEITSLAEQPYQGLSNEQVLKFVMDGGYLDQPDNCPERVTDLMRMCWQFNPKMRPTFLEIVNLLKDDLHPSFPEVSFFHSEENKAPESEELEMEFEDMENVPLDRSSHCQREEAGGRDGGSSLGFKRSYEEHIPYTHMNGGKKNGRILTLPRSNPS
T3 sequence (P06213 28-1370 isoform P06213-2 limits assumed): as the sequence (P06213 28-1370 isoform P06213-2 D734A limits assumed) above, with A707D counted along it
T3 sequence (P06213 763-1382 partner limits assumed): as the sequence (P06213 763-1382 partner limits assumed) above
T6 sequence (P06213 28-1370 isoform P06213-2 F123A limits assumed): as the sequence (P06213 28-1370 isoform P06213-2 D734A limits assumed) above, with F96A, A707D counted along it
T6 sequence (P06213 763-1382 partner limits assumed): as the sequence (P06213 763-1382 partner limits assumed) above
T5 sequence (P06213 28-1370 isoform P06213-2 F728A/F732A limits assumed): as the sequence (P06213 28-1370 isoform P06213-2 D734A limits assumed) above, with F701A, F705A, A707D counted along it
T5 sequence (P06213 763-1382 partner limits assumed): as the sequence (P06213 763-1382 partner limits assumed) above
T7 sequence (P06213 28-1370 isoform P06213-2 F91A limits assumed): as the sequence (P06213 28-1370 isoform P06213-2 D734A limits assumed) above, with F64A, A707D counted along it
T7 sequence (P06213 763-1382 partner limits assumed): as the sequence (P06213 763-1382 partner limits assumed) above
T1 sequence (P06213 28-1370 isoform P06213-2 F524A limits assumed): as the sequence (P06213 28-1370 isoform P06213-2 D734A limits assumed) above, with F497A, A707D counted along it
T1 sequence (P06213 763-1382 partner limits assumed): as the sequence (P06213 763-1382 partner limits assumed) above
T4 sequence (P06213 28-1370 isoform P06213-2 N42K limits assumed): as the sequence (P06213 28-1370 isoform P06213-2 D734A limits assumed) above, with N15K, A707D counted along it
T4 sequence (P06213 763-1382 partner limits assumed): as the sequence (P06213 763-1382 partner limits assumed) above
Chain of IR (P06213 28-758 limits assumed): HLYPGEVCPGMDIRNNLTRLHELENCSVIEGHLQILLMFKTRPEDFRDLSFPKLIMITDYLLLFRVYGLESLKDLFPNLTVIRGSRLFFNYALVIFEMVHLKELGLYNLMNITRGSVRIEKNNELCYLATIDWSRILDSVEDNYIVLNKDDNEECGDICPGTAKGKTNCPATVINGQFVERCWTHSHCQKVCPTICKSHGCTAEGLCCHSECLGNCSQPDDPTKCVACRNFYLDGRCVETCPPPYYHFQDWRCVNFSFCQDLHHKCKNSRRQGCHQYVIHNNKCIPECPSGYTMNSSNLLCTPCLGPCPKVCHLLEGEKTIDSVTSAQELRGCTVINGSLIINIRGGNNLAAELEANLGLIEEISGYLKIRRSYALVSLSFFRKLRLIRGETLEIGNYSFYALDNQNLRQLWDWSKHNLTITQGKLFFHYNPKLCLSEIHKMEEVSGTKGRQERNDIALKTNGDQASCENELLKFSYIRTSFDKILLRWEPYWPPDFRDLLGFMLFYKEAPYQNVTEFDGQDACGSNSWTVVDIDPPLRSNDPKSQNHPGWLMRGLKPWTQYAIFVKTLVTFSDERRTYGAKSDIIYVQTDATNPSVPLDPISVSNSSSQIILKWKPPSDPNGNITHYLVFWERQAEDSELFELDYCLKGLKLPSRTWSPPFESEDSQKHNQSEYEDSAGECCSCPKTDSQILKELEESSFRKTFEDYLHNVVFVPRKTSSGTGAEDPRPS
Chain of IR (P06213 763-1382 partner limits assumed): as the sequence (P06213 763-1382 partner limits assumed) above

CC[C@H](C)[C@H](NC(=O)[C@H](CCC(N)=O)NC(=O)[C@H](C)NC(=O)[C@H](Cc1c[nH]c2ccccc12)NC(=O)[C@H](CCC(=O)O)NC(=O)[C@H](CCC(=O)O)NC(=O)[C@H](CCC(=O)O)NC(=O)[C@H](CC(C)C)NC(=O)[C@H](CO)NC(C)=O)C(=O)N[C@@H](CCC(=O)O)C(=O)N[C@H]1CSSC[C@@H](C(=O)N2CCC[C@H]2C(=O)N[C@@H](CO)C(=O)N[C@@H](CCC(=O)O)C(=O)N[C@@H](CO)C(=O)N[C@@H](Cc2ccccc2)C(=O)N[C@@H](Cc2ccc(O)cc2)C(=O)N[C@@H](CC(=O)O)C(=O)N[C@@H](Cc2c[nH]c3ccccc23)C(=O)N[C@@H](Cc2ccccc2)C(=O)N[C@@H](CCC(=O)O)C(=O)N[C@@H](CCCNC(=N)N)C(=O)N[C@@H](CCC(N)=O)C(=O)N[C@@H](CC(C)C)C(N)=O)NC(=O)CNC(=O)[C@H](CCCNC(=N)N)NC(=O)CNC(=O)[C@H](Cc2ccc(O)cc2)NC(=O)[C@H](C(C)C)NC(=O)[C@H](CCC(=O)O)NC1=O [S597] (Ac-SLEEEWAQIECEVYGRGCPSESFYDWFERQL-NH2; disulfide 11-18)
MAPK pathway [1]: largely inactive | PI3K-AKT pathway [1]: selectively activates | cell proliferation (CAL33): did not promote | IR activation (pY IR) (IR F497A): fully activated | cell proliferation (T47D): did not promote | blood glucose [2]: lowers | phosphorylation of AKT (pAKT) (IR D707A [3]): significantly increased | phosphorylation of ERK (pERK) (IR D707A [3]): significantly increased | phosphorylation of IR (pY IR) (IR D707A [3]): significantly increased | IR activation (auto-phosphorylation of IR, pY IR) (IR wild-type (WT); 293 FT cells expressing IR WT, 10 nM for 10 min): as efficiently as insulin | difference between the A and B isoforms of IR activation (IR wild-type (WT); 293 FT cells expressing IR-A or IR-B, 10 min): no significant difference | IR activation (pY IR) (IR D707A [4]): fully activated | affinity for the IR (IR): sub-micromolar | IR activation (pY IR) (IR N15K): fully activated | cell viability and growth (C2C12 cells): does not promote cell proliferation as efficiently as insulin | IR activation (pY IR) (IR F701A/F705A): fully activated | IR activation (pY IR) (IR F96A): great deficiency | nuclear translocation of SREBP1 (SREBP1): stimulated to the same level | IR activation (pY IR) (IR F64A): could still be activated | cell proliferation (MCF7): did not promote
